Consider 1 compound from US20260232834A1, “CYTOTOXICITY TARGETING CHIMERAS FOR ANTIBODY-DRUG CONJUGATES AND BISPECIFIC ANTIBODIES” (GLAXOSMITHKLINE INTELLECTUAL PROPERTY DEVELOPMENT LIMITED, priority 2023, published 2026).

This experiment relates to PSMA-expressing cells (LNCAP). Briefly: Antibody-drug conjugate (ADC) cell killing assay, PSMA-expressing cells (CellTiter Glo). It is filed as cell-based. The conditions noted are these: 100 nM ADC plus serial diluted PSMA targeted CyTaC (max 20 μM), 48 hours, FIG. 3. The source says:
An antibody-drug conjugate (ADC) cell killing assay was developed to screen cotinine targeted ADCs in a 384-well plate format. This assay utilized (i) an anti-cotinine antibody having a heavy chain sequence of SEQ ID NO: 9 and a light chain sequence of SEQ ID NO: conjugated with Deruxtecan and (ii) a Prostate Specific Membrane Antigen (PSMA) Cytotoxicity Targeting Chimera (CyTaC) to target PSMA expressing cells for death. The structures of the ADC and PSMA targeted CyTaC used in this experiment are shown below:
To screen ADCs, 10,000 PSMA-expressing cells (LNCAP) or 10,000 non-expressing cells (CHO) in media (RPMI 1640 (Gibco) containing 10% fetal bovine serum (Gibco)) were transferred to a 384-well plate (Greiner Bio-One). To each well containing cells, 100 nM ADC was added. Next, serial diluted PSMA targeted CyTaC (maximum concentration of 20 μM) was added to appropriate wells. The plates were then incubated for 48 hours at 37° C. with 5% CO2. Following the 48 hour incubation, an equal volume of CellTiter Glo (Promega) was added to each well and the plates were read on a PheraStar Plate Reader (BMG) to measure cell viability via Luminescence signal. Signal: background was calculated by dividing the signal of a test well by the signal obtained when no CyTaC was added. The % cell death was calculated by: (1-(test well signal/no CyTaC signal))*100. […]

As to `CN1C(=O)C[C@H](C(=O)NCCO[C@H]2CC[C@H](OCCCC(=O)N[C@H]3CC[C@H](C(=O)N[C@@H](Cc4ccc5ccccc5c4)C(=O)NCCCC[C@H](NC(=O)N[C@@H](CCC(=O)O)C(=O)O)C(=O)O)CC3)CC2)[C@H]1c1cccnc1` [PSMA targeted CyTaC], the “ADC mediated cell killing (% cell death)” value is listed as “ADC mediated cell killing of PSMA expressing cells”.
